We go through 1 compound from US10501441B2, “Substituted imidazolylcarboxamides as pesticides” (BAYER CROPSCIENCE AKTIENGESELLSCHAFT, priority 2016, dated 2019).

Data set [1] can be described thus: log P by reversed-phase HPLC (C18), EEC directive 79/831 Annex V.A8, neutral range. Conditions: neutral range, pH 7.8; HPLC C18, 43° C. The class given is physicochemical. As to the method:
a) The log P values reported in the tables and preparation examples above were determined in accordance with EEC directive 79/831 Annex V.A8 by HPLC (High Performance Liquid Chromatography) using a reversed-phase column (C18). Temperature 43° C. The calibration is effected with unbranched alkan-2-ones (having 3 to 16 carbon atoms), for which the log P values are known. […] The log P values for the acidic range (as log P [a]) and/or for the neutral range (as log P [n]) were stated in the tables and preparation examples above.

The test system of data set [2] is Boophilus microplus. Put plainly: Boophilus microplus - injection test. The class given is in vivo. The settings on record: 20 μg/animal, engorged adult female cattle ticks, after 7 days. As to the method: Boophilus microplus—Injection Test
Solvent: dimethyl sulphoxide
To produce a suitable preparation of active compound, 10 mg of active compound are mixed with 0.5 ml of solvent and the concentrate is diluted with solvent to the desired concentration.
1 μl of the active compound solution is injected into the abdomen of 5 engorged adult female cattle ticks (Boophilus microplus). The animals are transferred into dishes and kept in a climate-controlled room.
Efficacy is assessed after 7 days by laying of fertile eggs. Eggs which are not visibly fertile are stored in a climate-controlled cabinet until the larvae hatch after about 42 days. An efficacy of 100% means that none of the ticks has laid any fertile eggs; 0% means that all the eggs are fertile.

Take `CN(C(=O)c1cnc(-n2cnc(C#N)n2)n1C)c1cccnc1` [I-1-031]: the “Logp [n]” value in data set [1] came to 1.22. Moreover, the “efficacy (laying of fertile eggs)” value in data set [2] came to 80%.
